For series [1], the target named is Bromodomain-containing protein 4 (Homo sapiens, UniProt O60885). In words: Inhibition of human recombinant BRD4 BD1 (42 to 167 residues) extracted from Escherichia coli BL21 (DE3) incubated for 2 hrs by TR-FRET assay. (TR-FRET usually uses a lanthanide donor and a delayed reading to cut background.)
Series [2] deals with RAW264.7. In words: Anti-inflammatory activity in mouse RAW264.7 cells assessed as inhibition of LPS-induced NO production at 10 uM preincubated with compound for 24 hrs followed by LPS stimulation by Griess reagent based analysis relative to control. The series is classed as functional. Details: scale not given: the % may be the effect or the level left.
Series [3] has as its target Bromodomain-containing protein 3 (Homo sapiens) (UniProt Q15059). Briefly: Inhibition of BRD3 BD1 (unknown origin) at 1 uM incubated for 2 hrs by TR-FRET assay relative to control.
Series [4] concerns the target T1, ATPase family AAA domain-containing protein 2 (Homo sapiens) (UniProt Q6PL18).
T1 sequence (whole entry): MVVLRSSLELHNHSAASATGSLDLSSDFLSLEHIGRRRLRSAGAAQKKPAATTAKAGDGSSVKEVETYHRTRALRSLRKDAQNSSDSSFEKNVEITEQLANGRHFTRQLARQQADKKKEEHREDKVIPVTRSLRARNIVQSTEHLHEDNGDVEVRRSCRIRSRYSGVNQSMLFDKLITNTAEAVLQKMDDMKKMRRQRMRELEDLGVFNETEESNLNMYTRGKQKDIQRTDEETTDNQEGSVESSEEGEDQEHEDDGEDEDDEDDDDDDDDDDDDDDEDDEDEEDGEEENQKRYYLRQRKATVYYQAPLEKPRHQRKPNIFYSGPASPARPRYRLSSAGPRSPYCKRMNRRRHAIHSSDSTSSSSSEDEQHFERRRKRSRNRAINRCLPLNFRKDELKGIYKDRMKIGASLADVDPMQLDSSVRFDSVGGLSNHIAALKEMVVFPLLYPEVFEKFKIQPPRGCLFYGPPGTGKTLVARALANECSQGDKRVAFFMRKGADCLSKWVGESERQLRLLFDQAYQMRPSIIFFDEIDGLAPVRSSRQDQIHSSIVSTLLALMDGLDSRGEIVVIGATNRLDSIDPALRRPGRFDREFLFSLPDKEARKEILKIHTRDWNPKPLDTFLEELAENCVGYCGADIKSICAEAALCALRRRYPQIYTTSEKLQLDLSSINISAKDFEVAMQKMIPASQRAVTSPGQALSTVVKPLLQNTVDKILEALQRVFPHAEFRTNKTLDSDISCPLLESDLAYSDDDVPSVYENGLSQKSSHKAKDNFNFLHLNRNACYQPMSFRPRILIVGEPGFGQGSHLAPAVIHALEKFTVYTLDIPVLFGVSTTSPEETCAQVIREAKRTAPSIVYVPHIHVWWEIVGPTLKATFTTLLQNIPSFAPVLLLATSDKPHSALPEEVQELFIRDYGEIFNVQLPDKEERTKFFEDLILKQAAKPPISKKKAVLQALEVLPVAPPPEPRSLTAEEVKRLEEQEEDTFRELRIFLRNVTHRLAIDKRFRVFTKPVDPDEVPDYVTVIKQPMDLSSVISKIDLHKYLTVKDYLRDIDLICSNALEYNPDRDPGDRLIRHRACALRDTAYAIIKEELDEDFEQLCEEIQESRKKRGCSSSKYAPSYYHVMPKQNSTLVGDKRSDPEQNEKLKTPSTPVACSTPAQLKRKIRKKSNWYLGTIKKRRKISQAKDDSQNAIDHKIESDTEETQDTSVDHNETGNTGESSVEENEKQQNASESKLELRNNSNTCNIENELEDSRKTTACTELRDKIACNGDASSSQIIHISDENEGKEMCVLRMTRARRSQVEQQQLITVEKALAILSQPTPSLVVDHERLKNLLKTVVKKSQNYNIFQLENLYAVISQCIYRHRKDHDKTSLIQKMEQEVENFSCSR
In words: Inhibition of ATAD2A (unknown origin) at 1 uM incubated for 2 hrs by TR-FRET assay relative to control.

Series [5] concerns the target Bromodomain-containing protein 2 (Homo sapiens) (UniProt P25440). Briefly: Inhibition of BRD2 BD2 (unknown origin) at 1 uM incubated for 2 hrs by TR-FRET assay relative to control.
Series [6] has as its system RAW264.7. In words: Cytotoxicity against mouse RAW264.7 cells at 20 uM measured after 24 hrs by CCK8 method. The series is classed as functional, cell-based. (In general: Tetrazolium dyes change colour on reduction, which living cells bring about.)
For series [7], the system named is THP-1. Briefly: Cytotoxicity against human THP-1 cells at 20 uM measured after 24 hrs by CCK8 method. It is filed as functional, cell-based.
Series [8] has as its system RAW264.7. In words: Anti-inflammatory activity in mouse RAW264.7 cells assessed as inhibition of LPS-induced TNF-alpha expression preincubated with compound for 2 hrs followed by LPS stimulation and measured after 6 hrs by RT-qPCR analysis. To be noted: dose 2.5-20 µM, time 8.0 hrs. The series is classed as functional, cell-based. Background: Quantitative PCR measures a nucleic acid by following its amplification.

Series [9] relates to THP-1. Briefly: Anti-inflammatory activity in human THP-1 cells assessed as inhibition of LPS-induced IL-6 expression preincubated with compound for 2 hrs followed by LPS stimulation and measured after 6 hrs by RT-qPCR analysis. It is filed as functional, cell-based. Particulars: dose 2.5-20 µM, time 8.0 hrs.
Series [10] deals with Mus musculus. In words: Antiinflammatory activity against C57BL/6 mouse acute inflammation model assessed as inhibition of LPS-induced IL-6 level at 50 to 100 mg/kg, po pre-administered for 2 hrs followed by LPS stimulation for 6 hrs by ELISA method. The series is classed as functional, organism-based. To be noted: dose 50-100 mg/kg, time 8.0 hrs.
Series [11] deals with RAW264.7. Briefly: Anti-inflammatory activity in mouse RAW264.7 cells assessed as inhibition of LPS-induced TNF-alpha level preincubated with compound for 2 hrs followed by LPS stimulation and measured after 22 hrs by ELISA method. Particulars: dose 2.5-20 µM, time 24.0 hrs. It is filed as functional, cell-based.
Series [12] relates to Mus musculus. Briefly: Antiinflammatory activity against C57BL/6 mouse acute inflammation model assessed as inhibition of LPS-induced TNF-alpha level at 50 to 100 mg/kg, po pre-administered for 2 hrs followed by LPS stimulation for 6 hrs by ELISA method. The series is classed as functional, organism-based. Particulars: dose 50-100 mg/kg, time 8.0 hrs.
Series [13] concerns Mus musculus. Briefly: Antiinflammatory activity against LPS-induced C57BL/6 mouse acute inflammation model assessed as rescue of damaged glomerular cells in kidney at 50 to 100 mg/kg, po pre-administered for 2 hrs followed by LPS stimulation for 6 hrs. It is filed as functional, organism-based. Particulars: dose 50-100 mg/kg, time 8.0 hrs.
For series [14], the system named is Mus musculus. In words: Antiinflammatory activity against LPS-induced C57BL/6 mouse acute inflammation model assessed as rescue of increased inflammatory cell infiltration in kidney at 50 to 100 mg/kg, po pre-administered for 2 hrs followed by LPS stimulation for 6 hrs. To be noted: dose 50-100 mg/kg, time 8.0 hrs. It is filed as functional, organism-based.
The test system of series [15] is Mus musculus. In words: Antiinflammatory activity against LPS-induced C57BL/6 mouse acute inflammation model assessed as improvement of internal brush boundary structure at 100 mg/kg, po pre-administered for 2 hrs followed by LPS stimulation for 6 hrs. The series is classed as functional, organism-based. To be noted: time 8.0 hrs.
The subject of series [16] is Mus musculus. Briefly: Antiinflammatory activity against LPS-induced C57BL/6 mouse acute inflammation model assessed as decrease in number of interstitial vacuoles at 100 mg/kg, po pre-administered for 2 hrs followed by LPS stimulation for 6 hrs. It is filed as functional, organism-based. Particulars: time 8.0 hrs.
Series [17] can be described thus: Toxicity in C57BL/6 mouse effect on heart at 100 mg/kg, po measured after 24 hrs. Particulars: in vivo. The series is classed as organism-based.
A short description of series [18]: Toxicity in C57BL/6 mouse effect on spleen at 100 mg/kg, po measured after 24 hrs. The series is classed as organism-based. Particulars: in vivo.
Series [19] is described as follows: Toxicity in C57BL/6 mouse effect on intestine at 100 mg/kg, po measured after 24 hrs. The series is classed as organism-based. To be noted: in vivo.

For one compound, IC50, Activity and inhibition results are on record in ChEMBL document CHEMBL6121006, “Marine natural product-inspired discovery of novel BRD4 inhibitors with anti-inflammatory activity” (Eur J Med Chem, 2025).

Activity calls are given as the source filed them. No cut-off for these calls is given here.

As a reminder, the IC50 is the concentration that inhibits the measured activity by half. As a reminder, the inhibition is the relative decrease from the control value, in per cent.

Chain of Bromodomain-containing protein 2 (Homo sapiens) (P25440 whole entry, looked up): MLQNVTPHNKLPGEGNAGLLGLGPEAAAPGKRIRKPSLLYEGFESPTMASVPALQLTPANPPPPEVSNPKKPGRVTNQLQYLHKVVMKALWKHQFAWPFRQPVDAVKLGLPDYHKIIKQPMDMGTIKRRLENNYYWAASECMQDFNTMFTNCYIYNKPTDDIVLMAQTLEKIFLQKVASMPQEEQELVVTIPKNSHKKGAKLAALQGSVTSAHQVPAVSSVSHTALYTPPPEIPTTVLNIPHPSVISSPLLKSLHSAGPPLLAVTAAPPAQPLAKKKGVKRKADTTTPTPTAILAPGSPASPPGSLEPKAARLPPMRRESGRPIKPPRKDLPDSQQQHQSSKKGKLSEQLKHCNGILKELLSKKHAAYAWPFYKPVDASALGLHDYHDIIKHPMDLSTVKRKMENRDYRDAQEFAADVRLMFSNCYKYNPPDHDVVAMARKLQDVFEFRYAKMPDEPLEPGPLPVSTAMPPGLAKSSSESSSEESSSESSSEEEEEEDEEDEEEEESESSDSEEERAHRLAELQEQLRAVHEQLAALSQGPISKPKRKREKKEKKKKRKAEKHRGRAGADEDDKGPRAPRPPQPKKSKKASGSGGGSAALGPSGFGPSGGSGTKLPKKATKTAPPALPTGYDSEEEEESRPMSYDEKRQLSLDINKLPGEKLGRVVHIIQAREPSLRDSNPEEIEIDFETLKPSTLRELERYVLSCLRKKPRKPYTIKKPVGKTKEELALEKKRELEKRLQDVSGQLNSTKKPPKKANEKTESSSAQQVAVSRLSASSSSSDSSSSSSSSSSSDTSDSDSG
Chain of Bromodomain-containing protein 3 (Homo sapiens) (Q15059 2-726 limits assumed): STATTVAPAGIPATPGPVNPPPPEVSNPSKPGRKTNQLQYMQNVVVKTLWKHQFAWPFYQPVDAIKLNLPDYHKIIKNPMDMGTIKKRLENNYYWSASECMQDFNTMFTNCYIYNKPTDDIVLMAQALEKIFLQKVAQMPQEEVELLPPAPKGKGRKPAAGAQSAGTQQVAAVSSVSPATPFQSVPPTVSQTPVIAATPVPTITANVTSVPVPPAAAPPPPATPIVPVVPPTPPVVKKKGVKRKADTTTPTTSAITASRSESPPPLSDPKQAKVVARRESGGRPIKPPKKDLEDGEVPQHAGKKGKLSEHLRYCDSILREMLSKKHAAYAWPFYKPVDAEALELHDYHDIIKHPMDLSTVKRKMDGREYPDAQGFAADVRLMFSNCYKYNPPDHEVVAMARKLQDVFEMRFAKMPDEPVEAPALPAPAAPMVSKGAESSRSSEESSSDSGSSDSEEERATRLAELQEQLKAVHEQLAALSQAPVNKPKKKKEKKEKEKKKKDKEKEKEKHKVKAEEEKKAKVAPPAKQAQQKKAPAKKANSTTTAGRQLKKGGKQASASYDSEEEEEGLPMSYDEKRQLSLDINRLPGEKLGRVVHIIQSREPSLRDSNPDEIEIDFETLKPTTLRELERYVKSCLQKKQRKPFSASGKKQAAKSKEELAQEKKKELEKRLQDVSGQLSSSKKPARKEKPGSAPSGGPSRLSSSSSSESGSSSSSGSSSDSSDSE

For `COc1ccc(/C=C/c2nc3cc(OC)cc(OC)c3c(=O)[nH]2)cc1`, the IC50 in series [1] worked out at 3.81 µM. The Activity in series [2] is 106%; in series [8], “Dose-dependent-effect”; in [9] it was “Dose-dependent-effect”; in series [11], “Dose-dependent-effect”; in [17], “Non-toxic”; in [18], “Non-toxic”. Further, the Activity entry in [19] was “Non-toxic”. Also, the inhibition in [3] came out at 25%; in series [4], 5%; in series [5], 30%. Besides, the outcome in [6] and in series [7] was inactive. Further, the outcome in series [10], in series [12], in [13], in series [14], in series [15] and in series [16] was Active.
